One compound from patent US20090233957A1, “(-)-BELOXEPIN AND METHODS FOR ITS SYNTHESIS AND USE” (priority 2008, published 2009) can be followed below.

The structures appear in SMILES notation.

Data set [1] concerns the target T1, cloned human NE transporter (hNET) (Homo sapiens, UniProt P23975).
T1 construct: expressed in transfected cells; host or cells: CHO cells
The experiment in a line: NE transporter binding assay, [3H]nisoxetine. Conditions: membranes of CHO cells expressing hNET; read-out: NET Ki. As to the method: Protocols. For the NE transporter binding assay, [^3H]nisoxetine (1.0 nM) was incubated with various concentrations of test compounds for 2 hours at 4° C. with membranes prepared from Chinese hamster ovary cells (CHO) cells heterologously expressing the cloned human NE transporter (hNET). Bound radioactivity was determined by scintillation spectroscopy.

Data set [2] concerns the target NET (rat hypothalamus synaptosomes) (Rattus norvegicus, UniProt Q63380). The data set can be described thus: NE uptake inhibition assay, [3H]norepinephrine into synaptosomes. The class given is biochemical. The settings on record: 20 min 37° C., read-out: NET IC50 (norepinephrine reuptake inhibition).
The target in data set [3] is T2, cloned human 5HT2A receptor (Homo sapiens, UniProt P28223).
T2 construct: expressed in transfected cells; host or cells: HEK-293 cells
T2 sequence (P28223 whole entry): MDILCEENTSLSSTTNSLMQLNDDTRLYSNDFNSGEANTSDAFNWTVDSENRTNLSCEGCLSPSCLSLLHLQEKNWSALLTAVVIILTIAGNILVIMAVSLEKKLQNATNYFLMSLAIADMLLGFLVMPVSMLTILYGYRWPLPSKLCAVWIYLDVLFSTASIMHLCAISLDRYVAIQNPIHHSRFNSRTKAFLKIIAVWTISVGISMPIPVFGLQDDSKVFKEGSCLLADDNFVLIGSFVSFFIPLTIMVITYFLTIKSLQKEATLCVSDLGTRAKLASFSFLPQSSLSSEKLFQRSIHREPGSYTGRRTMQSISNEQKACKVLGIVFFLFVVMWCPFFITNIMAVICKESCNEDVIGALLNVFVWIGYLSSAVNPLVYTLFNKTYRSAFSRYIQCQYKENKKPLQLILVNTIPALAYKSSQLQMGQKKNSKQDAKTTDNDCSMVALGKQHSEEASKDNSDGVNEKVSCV
The experiment in a line: 5HT2A receptor binding assay, [3H]ketanserin. Conditions: HEK-293 membranes. As to the method:
For the 5HT2A receptor binding assay, [^3H]ketanserin (0.5 nM) was incubated for 60 min at 22° C. with membranes prepared from HEK-293 cells heterologously expressing the cloned human 5-HT2A receptor according to the method of Bonhaus et al., 1995, Brit. J. Pharmacol. 115:622-628. Various concentrations of test compound were added and bound radioactivity was determined by scintillation counting. Non-specific binding was determined in the presence of 1.0 μM unlabeled ketanserin. The Ki value for the test compound was determined using standard methods.

Data set [4] has as its target T2, cloned human 5HT2A receptor. The experiment in a line: 5HT2A functional assay, intracellular Ca2+ in HEK-293 cells. The class given is cell-based. As for the experimental part: (§1) Agonist effects at the 5HT2A receptor were assessed by incubation at 22° C. of a series of concentrations of test compound with intact HEK-293 cells heterologously expressing the cloned human 5HT2A receptor and measuring intracellular [Ca^2+] by fluorimetry according to the method of Jerman et al., 2001, Eur. J. Pharmacol. 414:23-30). Antagonist effects were assessed by the ability of a series of concentrations of test compound to block the increase in intracellular [Ca^2+] that occurred in the presence of 3.0 nM serotonin under the same conditions. EC50 and IC50 values were determined using standard methods.

Data set [5] has as its target T3, cloned human 5HT2B receptor (Homo sapiens, UniProt P41595).
T3 construct: expressed in transfected cells; host or cells: CHO cells
The data set can be described thus: 5HT2B receptor binding assay, [125I]DOI. Conditions: CHO membranes. As to the method: For the 5HT2B receptor binding assay, [^125I](±)[…] (DOI) (0.2 nM) was incubated for 15 min at 37° C. with membranes prepared from Chinese hamster ovary cells heterologously expressing the cloned human 5HT2B receptor according to the method of Choi et al., 1994, FEBS Lett 352:393-399. Various concentrations of test compound were added and bound radioactivity was determined by scintillation counting. Non-specific binding was determined in the presence of 1.0 μM unlabeled DOI. The Ki value for the test compound was determined using standard methods.

The target in data set [6] is T3, cloned human 5HT2B receptor. The data set can be described thus: 5HT2B functional assay, intracellular Ca2+ in CHO cells. The class given is cell-based. As to the method: as §1, with “5HT2B” for “5HT2A”, “CHO” for “HEK-293”, “Porter” for “Jerman”, “1991, Brit.” for “2001, Eur.”, “128:13-20.” for “414:23-30).”, “0.3” for “3.0”
The target of data set [7] is T4, cloned human 5HT2C receptor (Homo sapiens, UniProt P28335).
T4 construct: expressed in transfected cells; host or cells: CHO cells
T4 sequence (P28335 33-458): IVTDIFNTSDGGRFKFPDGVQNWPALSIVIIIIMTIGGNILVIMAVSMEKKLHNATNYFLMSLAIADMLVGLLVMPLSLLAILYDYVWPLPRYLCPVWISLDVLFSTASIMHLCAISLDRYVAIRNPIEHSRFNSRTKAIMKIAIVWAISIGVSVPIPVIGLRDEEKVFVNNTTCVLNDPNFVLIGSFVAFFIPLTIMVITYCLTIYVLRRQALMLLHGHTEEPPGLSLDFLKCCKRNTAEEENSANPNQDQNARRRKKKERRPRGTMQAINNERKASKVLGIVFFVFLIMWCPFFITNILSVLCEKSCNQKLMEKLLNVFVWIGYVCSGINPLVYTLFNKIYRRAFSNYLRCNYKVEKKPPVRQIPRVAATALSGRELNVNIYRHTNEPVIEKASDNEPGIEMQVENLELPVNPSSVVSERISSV
The data set can be described thus: 5HT2C functional assay, intracellular Ca2+ in CHO cells. The class given is cell-based. As to the method:
as §1, with “5HT2C” for “5HT2A”, “CHO” for “HEK-293”, “414:23-30.” for “414:23-30).”

The target of the next data set is T5, human recombinant CYP2D6 (Homo sapiens, UniProt P10635).
T5 construct: purchased BD Bioscience
T5 sequence (P10635 whole entry): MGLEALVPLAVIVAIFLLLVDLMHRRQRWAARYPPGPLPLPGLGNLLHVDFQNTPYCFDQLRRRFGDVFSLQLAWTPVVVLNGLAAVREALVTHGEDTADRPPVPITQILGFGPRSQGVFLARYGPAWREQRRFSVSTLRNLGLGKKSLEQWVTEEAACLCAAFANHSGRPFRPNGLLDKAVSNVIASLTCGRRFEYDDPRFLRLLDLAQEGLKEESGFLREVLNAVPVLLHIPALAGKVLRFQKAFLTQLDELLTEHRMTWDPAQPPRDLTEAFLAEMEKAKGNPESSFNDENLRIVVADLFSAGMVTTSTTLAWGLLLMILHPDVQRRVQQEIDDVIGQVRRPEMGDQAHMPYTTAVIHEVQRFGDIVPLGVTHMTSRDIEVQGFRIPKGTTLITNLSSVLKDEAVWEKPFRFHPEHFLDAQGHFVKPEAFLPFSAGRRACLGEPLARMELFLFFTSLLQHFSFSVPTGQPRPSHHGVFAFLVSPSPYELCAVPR
The data set can be described thus: CYP2D6 inhibition, MAMC substrate. The class given is in vitro ADME. The settings on record: microsomes with human recombinant CYP2D6; read-out: CYP2D6 Isoenzyme IC50. As for the experimental part: Protocol. […] The source of the enzyme was microsomes containing human recombinant CYP2D6 obtained from BD Bioscience. Conversion of MAMC to 7-hydroxy-4-(aminomethyl)coumarin was measured using a PerkinElmer Fusion with a 390 nm excitation filter and a 460 nm emission filter.

Where [8] appears, read: antagonist mode, vs 3.0 nM serotonin.

T3 sequence (P41595 whole entry): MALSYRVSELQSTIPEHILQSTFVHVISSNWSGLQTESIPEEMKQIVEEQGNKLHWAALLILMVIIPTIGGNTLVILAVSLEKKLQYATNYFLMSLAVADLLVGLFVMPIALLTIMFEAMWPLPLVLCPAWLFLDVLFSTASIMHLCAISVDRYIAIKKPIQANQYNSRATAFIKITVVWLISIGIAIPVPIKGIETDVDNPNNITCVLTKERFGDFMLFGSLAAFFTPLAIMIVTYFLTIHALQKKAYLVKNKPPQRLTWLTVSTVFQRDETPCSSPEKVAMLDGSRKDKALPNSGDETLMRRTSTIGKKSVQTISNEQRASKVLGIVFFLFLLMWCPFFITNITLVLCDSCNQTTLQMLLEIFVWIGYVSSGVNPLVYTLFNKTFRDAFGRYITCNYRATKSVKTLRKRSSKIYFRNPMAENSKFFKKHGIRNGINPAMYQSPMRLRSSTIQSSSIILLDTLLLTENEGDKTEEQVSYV
T1 sequence (P23975 whole entry): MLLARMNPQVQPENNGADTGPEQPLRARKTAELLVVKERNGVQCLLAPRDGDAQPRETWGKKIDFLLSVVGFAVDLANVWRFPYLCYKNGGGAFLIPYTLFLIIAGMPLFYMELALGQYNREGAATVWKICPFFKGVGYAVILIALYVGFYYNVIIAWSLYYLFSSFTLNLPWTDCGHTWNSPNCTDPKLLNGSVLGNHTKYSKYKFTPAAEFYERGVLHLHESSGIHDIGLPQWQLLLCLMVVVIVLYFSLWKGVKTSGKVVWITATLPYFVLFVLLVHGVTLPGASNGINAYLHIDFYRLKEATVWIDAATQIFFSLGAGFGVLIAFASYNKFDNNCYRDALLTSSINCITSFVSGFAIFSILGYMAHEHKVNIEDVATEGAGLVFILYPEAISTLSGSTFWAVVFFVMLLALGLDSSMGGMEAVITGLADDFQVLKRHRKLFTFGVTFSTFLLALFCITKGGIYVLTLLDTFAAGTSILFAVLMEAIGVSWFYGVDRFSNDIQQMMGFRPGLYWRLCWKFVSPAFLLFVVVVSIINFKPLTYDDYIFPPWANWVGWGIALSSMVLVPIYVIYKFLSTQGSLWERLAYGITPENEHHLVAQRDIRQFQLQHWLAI
NET (rat hypothalamus synaptosomes), sequence (Q63380 1-617): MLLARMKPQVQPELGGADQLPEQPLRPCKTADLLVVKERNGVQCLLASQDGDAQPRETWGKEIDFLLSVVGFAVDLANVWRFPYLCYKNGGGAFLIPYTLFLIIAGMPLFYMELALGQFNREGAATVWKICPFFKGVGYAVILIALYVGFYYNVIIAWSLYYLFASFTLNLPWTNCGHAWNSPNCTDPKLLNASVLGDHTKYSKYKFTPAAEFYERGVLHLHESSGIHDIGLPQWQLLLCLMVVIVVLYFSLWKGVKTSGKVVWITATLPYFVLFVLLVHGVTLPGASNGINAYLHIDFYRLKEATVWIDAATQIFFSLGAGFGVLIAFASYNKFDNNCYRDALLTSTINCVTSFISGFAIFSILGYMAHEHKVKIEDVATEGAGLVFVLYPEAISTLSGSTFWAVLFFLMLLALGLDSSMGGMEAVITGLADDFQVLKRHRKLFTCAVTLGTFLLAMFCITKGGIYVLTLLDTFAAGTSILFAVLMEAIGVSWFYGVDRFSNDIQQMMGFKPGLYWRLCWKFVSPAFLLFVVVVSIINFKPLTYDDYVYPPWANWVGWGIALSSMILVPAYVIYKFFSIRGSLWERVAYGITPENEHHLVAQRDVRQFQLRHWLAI

On to `Cc1cccc2c1Oc1ccccc1C1(O)CCN(C)CC21` (single isomer, unassigned; (+)) [(+)-beloxepin], for which the results for the Ki in data set [1], in data set [3] and in data set [5] were 2920 nM, 97 nM and 170 nM, respectively. Also, the IC50 in data set [2] came out at 1200 nM; in data set [4] (setting [8]), 1600 nM; in data set [6] (antagonist mode, vs 0.3 nM serotonin), 690 nM; in data set [7] (setting [8]), 7200 nM; at human recombinant CYP2D6, 236 nM. In addition, in data set [4], the “5HT2A functional activity type” value is recorded as “antagonist”. In addition, the “5HT2B functional activity type” value in data set [6] is on record as “antagonist”. For the same compound, the “5HT2C functional activity type” value in data set [7] is given as “antagonist”.

Usually Ki stands for a dissociation constant, usually derived from enzyme kinetics or from competition with a known ligand. In general, IC50 refers to the concentration that inhibits the measured activity by half.
